For 17 compounds, IC50 results are on record in patent US20040053822A1, “Inducing cellular immune responses to mage2/3 using peptide and nucleic acid compositions” (priority 2002, published 2004).

One assay concerns the target HLA-B*3501 (Homo sapiens, UniProt P01889, A329T/A93T/A95T/C349S/D201E/D98Y/E176V/E187L/E204Q/E69T/I218V/K202T/L119I/Q94N/R155S/R180L/S121R/S35A/S48A/T118I/V127L/V306I/V36M/Y140S/Y91F). The experiment in a line: Purified HLA class I peptide binding assay, B*3501.
Another assay concerns the target HLA-B*5401 (Homo sapiens, UniProt P01889, A329T/C349S/D138N/D201E/E176V/E187T/E204Q/E69G/I76V/K202T/L119W/R155S/R180L/S121T/S35A/S48A/V127L/V306I/V36M/Y140L). The experiment in a line: Purified HLA class I peptide binding assay, B*5401.
The next assay concerns the target HLA-B*5301 (Homo sapiens, UniProt P01889, A329T/A93T/A95T/C349S/D201E/D98Y/E176V/E187L/E204Q/E69T/G107R/I218V/K202T/L105A/L119I/N104I/Q94N/R106L/R155S/R180L/S101N/S121R/S35A/S48A/T118I/V127L/V306I/V36M/Y140S/Y91F). The experiment in a line: Purified HLA class I peptide binding assay, B*5301.
The target of a further assay is HLA-B*5101 (B51) (Homo sapiens, UniProt P01889, A329T/A93T/A95T/C349S/D138N/D201E/D98Y/E187L/E204Q/E69T/G107R/I218V/K202T/L105A/L119W/N104I/Q94N/R106L/R155S/R180L/S101N/S121T/S35A/S48A/V306I/V36M/Y195H/Y91F). The experiment in a line: Purified HLA class I peptide binding assay, B51. As to conditions: binding affinity, HLA-B7 supermotif-bearing peptides.
A further assay addresses HLA-B*0702 (Homo sapiens, UniProt P01889). Nature of the assay: Purified HLA class I peptide binding assay, B*0702.
Setting [1] is: binding affinity, HLA-B7 supermotif-bearing peptides.

Where two headings read alike, the source gives them in different places. Bounds are passed on as bounds.

In the case of `CC[C@H](C)[C@H](NC(=O)[C@@H](NC(=O)[C@H](CC(C)C)NC(=O)[C@H](CC(C)C)NC(=O)CNC(=O)[C@@H](NC(=O)[C@H](CCCCN)NC(=O)[C@@H]1CCCN1C(=O)[C@@H](N)Cc1ccccc1)[C@@H](C)O)[C@@H](C)CC)C(=O)O`, the IC50 on HLA-B*3501 (setting [1]) is over 10000 nM; on HLA-B*5401 (setting [1]), 10 nM; on HLA-B*5301 (setting [1]), 266 nM; at HLA-B*5101 (B51) (read-out: B*5101 nM), 32 nM.
Turning to `CC[C@H](C)[C@H](NC(=O)[C@@H](NC(=O)[C@@H](NC(=O)[C@H](CC(C)C)NC(=O)[C@H](CC(C)C)NC(=O)CNC(=O)[C@H](C)NC(=O)[C@H](CCCCN)NC(=O)[C@@H]1CCCN1C(=O)[C@@H](N)Cc1ccccc1)[C@@H](C)CC)[C@@H](C)CC)C(=O)O`, the IC50 at HLA-B*3501 (setting [1]) was determined as 2670 nM; at HLA-B*0702 (setting [1]), 204 nM; on HLA-B*5301 (setting [1]), 846 nM; at HLA-B*5101 (B51) (read-out: B*5101 nM) it was 65 nM.
As to `CC[C@H](C)[C@H](NC(=O)[C@H](Cc1ccc(O)cc1)NC(=O)[C@H](CC(C)C)NC(=O)[C@H](Cc1c[nH]cn1)NC(=O)[C@H](CO)NC(=O)[C@@H](NC(=O)[C@@H]1CCCN1C(=O)[C@@H](N)Cc1ccccc1)[C@@H](C)CC)C(=O)O`, the IC50 was 655 nM at HLA-B*3501; 212 nM at HLA-B*0702; 59 nM at HLA-B*5401; 358 nM on HLA-B*5301; 42 nM on HLA-B*5101 (B51) (B*5101 nM).
Turning to `CC[C@H](C)[C@H](NC(=O)[C@H](Cc1ccccc1)NC(=O)[C@@H](NC(=O)[C@H](Cc1ccc(O)cc1)NC(=O)[C@H](CC(C)C)NC(=O)[C@H](Cc1c[nH]cn1)NC(=O)CNC(=O)[C@@H](NC(=O)[C@@H]1CCCN1C(=O)[C@@H](N)Cc1ccccc1)[C@@H](C)CC)[C@@H](C)CC)C(=O)O`, the IC50 at HLA-B*3501 (setting [1]) worked out at 139 nM; at HLA-B*0702 (setting [1]), 63 nM; at HLA-B*5401 (setting [1]) it was 2.9 nM; at HLA-B*5301 (setting [1]) it was 8.5 nM; on HLA-B*5101 (B51) (read-out: B*5101 nM), 5.7 nM.
For the compound `CC[C@H](C)[C@H](NC(=O)[C@H](CC(C)C)NC(=O)[C@H](CC(C)C)NC(=O)CNC(=O)[C@@H](NC(=O)[C@H](CCCCN)NC(=O)[C@@H]1CCCN1C(=O)[C@@H](N)Cc1ccccc1)[C@@H](C)O)C(=O)O`, the IC50 at HLA-B*3501 (setting [1]) was over 10000 nM; at HLA-B*0702 (setting [1]), 134 nM; on HLA-B*5401 (setting [1]) it was 37 nM; at HLA-B*5301 (setting [1]) it was 3320 nM; on HLA-B*5101 (B51) (read-out: B*5101 nM) it was 16 nM.
Consider `CC[C@H](C)[C@H](NC(=O)[C@H](CO)NC(=O)[C@H](CCC(N)=O)NC(=O)[C@H](CO)NC(=O)[C@H](Cc1c[nH]c2ccccc12)NC(=O)[C@H](CC(C)C)NC(=O)[C@@H]1CCCN1C(=O)[C@@H](N)Cc1ccccc1)C(=O)O`, for which the IC50 at HLA-B*3501 (setting [1]) stood at 1010 nM; on HLA-B*0702 (setting [1]) it was 122 nM; on HLA-B*5401 (setting [1]) it was 15 nM; at HLA-B*5301 (setting [1]) it was 245 nM.
Consider `CC[C@H](C)[C@H](NC(=O)[C@H](CC(C)C)NC(=O)[C@@H](NC(=O)[C@H](Cc1ccc(O)cc1)NC(=O)[C@H](CC(C)C)NC(=O)[C@H](Cc1c[nH]cn1)NC(=O)[C@H](CO)NC(=O)[C@@H](NC(=O)[C@@H]1CCCN1C(=O)[C@@H](N)Cc1ccccc1)[C@@H](C)CC)[C@@H](C)CC)C(=O)O`, for which the IC50 on HLA-B*0702 (setting [1]) worked out at 97 nM; on HLA-B*5401 (setting [1]), 2.6 nM; on HLA-B*5301 (setting [1]), 4.9 nM; on HLA-B*5101 (B51) (read-out: B*5101 nM) it was 13 nM.
In the case of `CC[C@H](C)[C@H](NC(=O)[C@H](CC(C)C)NC(=O)[C@H](CC(=O)O)NC(=O)[C@H](CCC(N)=O)NC(=O)[C@H](CCSC)NC(=O)[C@H](CC(C)C)NC(=O)[C@H](CC(C)C)NC(=O)[C@H](CCCCN)NC(=O)[C@H](CCCNC(=N)N)NC(=O)[C@@H]1CCCN1C(=O)[C@@H](N)Cc1ccccc1)C(=O)O`, the IC50 is over 10000 nM on HLA-B*3501 (setting [1]), 86 nM on HLA-B*0702 (setting [1]), 100 nM at HLA-B*5401 (setting [1]) and 367 nM at HLA-B*5101 (B51) (read-out: B*5101 nM).
On to `CC[C@H](C)[C@H](NC(=O)[C@@H]1CCCN1C(=O)[C@@H]1CCCN1C(=O)[C@H](Cc1ccc(O)cc1)NC(=O)[C@H](CO)NC(=O)[C@@H](NC(=O)[C@H](Cc1c[nH]cn1)NC(=O)[C@@H]1CCCN1C(=O)[C@@H](N)Cc1ccccc1)[C@@H](C)CC)C(=O)O`, for which the IC50 turned out to be 360 nM at HLA-B*3501 (setting [1]), 2.9 nM at HLA-B*0702 (setting [1]), 1.4 nM on HLA-B*5401 (setting [1]) and 233 nM on HLA-B*5301 (setting [1]).
For the compound `CC[C@H](C)[C@H](NC(=O)[C@H](Cc1ccc(O)cc1)NC(=O)[C@H](CO)NC(=O)[C@@H](NC(=O)[C@H](CCC(=O)O)NC(=O)[C@@H](NC(=O)[C@H](CC(C)C)NC(=O)[C@H](C)NC(=O)[C@H](CCCNC(=N)N)NC(=O)[C@@H]1CCCN1C(=O)[C@@H](N)Cc1ccccc1)C(C)C)[C@@H](C)O)C(=O)O`, the IC50 worked out at 5540 nM at HLA-B*3501 (setting [1]), 59 nM on HLA-B*5401 (setting [1]), 620 nM on HLA-B*5301 (setting [1]) and 117 nM at HLA-B*5101 (B51) (read-out: B*5101 nM).
As for `CC[C@H](C)[C@H](NC(=O)[C@H](CO)NC(=O)[C@H](CO)NC(=O)[C@H](C)NC(=O)CNC(=O)[C@H](CCC(N)=O)NC(=O)[C@@H]1CCCN1C(=O)[C@@H](N)Cc1ccccc1)C(=O)O`, the values for the IC50 at HLA-B*3501 (setting [1]), at HLA-B*5401 (setting [1]) and on HLA-B*5301 (setting [1]) were over 10000 nM, 400 nM and 3000 nM, respectively.
Regarding `CC[C@H](C)[C@H](NC(=O)[C@@H]1CCCN1C(=O)[C@H](Cc1ccc(O)cc1)NC(=O)[C@H](CC(N)=O)NC(=O)[C@H](CCSC)NC(=O)[C@@H](NC(=O)[C@@H](NC(=O)[C@@H]1CCCN1C(=O)[C@@H](N)Cc1ccccc1)[C@@H](C)O)[C@@H](C)O)C(=O)O`, the IC50 is 22 nM on HLA-B*3501 (setting [1]), 59 nM at HLA-B*0702 (setting [1]), 1.5 nM on HLA-B*5401 (setting [1]) and 8.5 nM on HLA-B*5301 (setting [1]).
Turning to `CC[C@H](C)[C@H](NC(=O)[C@@H](NC(=O)[C@H](Cc1ccc(O)cc1)NC(=O)[C@H](CC(C)C)NC(=O)[C@H](Cc1c[nH]cn1)NC(=O)[C@H](CO)NC(=O)[C@@H](NC(=O)[C@@H]1CCCN1C(=O)[C@@H](N)Cc1ccccc1)[C@@H](C)CC)[C@@H](C)CC)C(=O)O`, the IC50 turned out to be 2.9 nM at HLA-B*0702 (setting [1]), 0.6 nM at HLA-B*5401 (setting [1]), 4.4 nM on HLA-B*5301 (setting [1]) and 4.2 nM on HLA-B*5101 (B51) (read-out: B*5101 nM).
As for `CC[C@H](C)[C@H](NC(=O)[C@H](CC(C)C)NC(=O)[C@H](CC(C)C)NC(=O)CNC(=O)[C@H](C)NC(=O)[C@H](CCCCN)NC(=O)[C@@H]1CCCN1C(=O)[C@@H](N)Cc1ccccc1)C(=O)O`, the values for the IC50 on HLA-B*3501 (setting [1]), on HLA-B*5301 (setting [1]) and at HLA-B*5101 (B51) (read-out: B*5101 nM) were over 10000 nM, 775 nM and 8.2 nM, respectively.
As for `CSCC[C@H](NC(=O)[C@@H](NC(=O)[C@@H](NC(=O)[C@@H]1CCCN1C(=O)[C@@H](N)Cc1ccccc1)[C@@H](C)O)[C@@H](C)O)C(=O)N[C@@H](CC(N)=O)C(=O)N[C@@H](Cc1ccc(O)cc1)C(=O)N1CCC[C@H]1C(=O)N[C@@H](CC(C)C)C(=O)N[C@@H](Cc1c[nH]c2ccccc12)C(=O)O`, the IC50 at HLA-B*0702 (setting [1]) was 220 nM; at HLA-B*5401 (setting [1]) it was 42 nM; on HLA-B*5101 (B51) (read-out: B*5101 nM), over 10000 nM.
As to `CC[C@H](C)[C@H](NC(=O)[C@H](Cc1c[nH]cn1)NC(=O)[C@@H]1CCCN1C(=O)[C@@H](N)Cc1ccccc1)C(=O)N[C@@H](CO)C(=O)N[C@@H](Cc1ccc(O)cc1)C(=O)N1CCC[C@H]1C(=O)N1CCC[C@H]1C(=O)N[C@@H](CC(C)C)C(=O)O`, the IC50 at HLA-B*0702 (setting [1]) worked out at 1.7 nM; on HLA-B*5401 (setting [1]), 3.8 nM; at HLA-B*5301 (setting [1]), 490 nM; on HLA-B*5101 (B51) (read-out: B*5101 nM), 177 nM.
As to `CC[C@H](C)[C@H](NC(=O)[C@@H](NC(=O)[C@H](Cc1ccc(O)cc1)NC(=O)[C@H](CC(C)C)NC(=O)[C@H](Cc1c[nH]cn1)NC(=O)CNC(=O)[C@@H](NC(=O)[C@@H]1CCCN1C(=O)[C@@H](N)Cc1ccccc1)[C@@H](C)CC)[C@@H](C)CC)C(=O)O`, the IC50 is 77 nM on HLA-B*3501 (setting [1]), 3.4 nM on HLA-B*0702 (setting [1]), 0.6 nM at HLA-B*5401 (setting [1]) and 5 nM on HLA-B*5101 (B51) (read-out: B*5101 nM).
